Molecular target: T1, CDK4 (Homo sapiens, UniProt P11802)
T1 construct: endogenous in cells; host or cells: C33A
Assay: CDK4 Degradation Assay, Western blotting
Assay type: cell-based
Method: C33A cells were purchased from American Type Culture Collection (ATCC) and were cultured in Dulbecco's Modified Eagle Medium (DMEM) containing 10% (v/v) fetal bovine serum (FBS) and maintained at 37° C. with 5% CO2. 22RV1 cells were purchased from the ATCC and were cultured in RPMI-1640 Medium containing 10% (v/v) FBS and maintained at 37° C. with 5% CO2. HEK293T cells were obtained from the UC Berkeley Cell Culture Facility and were cultured in DMEM containing 10% (v/v) FBS and maintained at 37° C. with 5% CO2. K562 cells were obtained from the UC Berkeley Cell Culture Facility and were cultured in Iscove's Modified Dulbecco's Medium (IMDM) containing 10% (v/v) FBS and maintained at 37° C. with 5% CO2. MV-4-11 cells were obtained from the ATCC and were cultured in IMDM containing 10% (v/v) FBS and maintained at 37° C. with 5% CO2. A549 cells were obtained from the ATCC and were cultured in F-12K Medium containing 10% (v/v) FBS and maintained at 37° C. with 5% CO2. Mino cells were obtained from the ATCC and were cultured in RPMI-1640 Medium containing 10% (v/v) FBS and maintained at 37° C. with 5% CO2. LNCaP cells were obtained from the ATCC and were cultured in RPMI-1640 Medium containing 10% (v/v) FBS and maintained at 37° C. with 5% CO2. Unless otherwise specified, all cell culture materials were purchased from Gibco. It is not known whether HEK293T cells are from male or female origin.
Cells were washed twice with cold PBS, scraped, and pelleted by centrifugation (700 g, 5 min, 4° C.). Pellets were resuspended in PBS, sonicated, clarified by centrifugation (12,000 g, 10 min, 4° C.), and lysate was transferred to new low-adhesion microcentrifuge tubes. Proteome concentrations were determined using BCA assay and lysate was diluted to appropriate working concentrations.
Proteins were resolved by SDS/PAGE and transferred to nitrocellulose membranes using the Trans-Blot Turbo transfer system (Bio-Rad). Membranes were blocked with 5% BSA in Tris-buffered saline containing Tween 20 (TBS-T) solution for 30 min at RT, washed in TBS-T, and probed with primary antibody diluted in recommended diluent per manufacturer overnight at 4° C. After 3 washes with TBS-T, the membranes were incubated in the dark with IR680- or IR800-conjugated secondary antibodies at 1:10,000 dilution in 5% BSA in TBS-T at RT for 1 h. After 3 additional washes with TBST, blots were visualized using an Odyssey Li-Cor fluorescent scanner. The membranes were stripped using ReBlot Plus Strong Antibody Stripping Solution (EMD Millipore) when additional primary antibody incubations were performed. Antibodies used in this study were CDK4 (Abcam ab108357), Vinculin (Abcam ab129002), GAPDH (Cell Signaling Technology 14C10), RNF126 (Santa Cruz Biotechnology sc-376005), BRD4 (Abcam ab128874), Beta Actin (Cell Signaling Technology 13E5), PDE5 (Abcam ab259945), AR-V7 (Abcam ab273500), c-Abl (Santa Cruz Biotechnology sc-23), SMARCA2 (Abcam ab240648), LRRK2 (Abcam ab133474), BTK (Cell Signaling Technology D3H5), Androgen Receptor (Abcam ab133273).

| Structure (SMILES) | DC50 [µM] |
| --- | --- |
| CN(C)C(=O)c1cc2cnc(Nc3ccc(N4CCN(C(=O)/C=C/C(=O)c5ccc6c(c5)CCO6)CC4)cn3)nc2n1C1CCCC1 [Compound 261, (E)-7-cyclopentyl-2-((5-(4-(4-(2,3-dihydrobenzofuran-5-yl)-4-oxobut-2-enoyl)piperazin-1-yl)pyridin-2-yl)amino)-N,N-dimethyl-7H-pyrrolo[2,3-d]pyrimidine-6-carboxamide] | > 10 |
| Cc1ccc(C(=O)/C=C/C(=O)N2CCN(c3ccc(Nc4ncc5cc(C(=O)N(C)C)n(C6CCCC6)c5n4)nc3)CC2)cc1 [Compound 262, (E)-7-cyclopentyl-N,N-dimethyl-2-((5-(4-(4-oxo-4-(p-tolyl)but-2-enoyl)piperazin-1-yl)pyridin-2-yl)amino)-7H-pyrrolo[2,3-d]pyrimidine-6-carboxamide] | 1 to 10 |
| Cc1ccccc1C(=O)/C=C/C(=O)N1CCN(c2ccc(Nc3ncc4cc(C(=O)N(C)C)n(C5CCCC5)c4n3)nc2)CC1 [Compound 263, (E)-7-cyclopentyl-N,N-dimethyl-2-((5-(4-(4-oxo-4-(o-tolyl)but-2-enoyl)piperazin-1-yl)pyridin-2-yl)amino)-7H-pyrrolo[2,3-d]pyrimidine-6-carboxamide] | > 10 |
| COc1ccc(C(=O)/C=C/C(=O)N2CCN(c3ccc(Nc4ncc5cc(C(=O)N(C)C)n(C6CCCC6)c5n4)nc3)CC2)c(F)c1 [Compound 264, (E)-7-cyclopentyl-2-((5-(4-(4-(2-fluoro-4-methoxyphenyl)-4-oxobut-2-enoyl)piperazin-1-yl)pyridin-2-yl)amino)-N,N-dimethyl-7H-pyrrolo[2,3-d]pyrimidine-6-carboxamide] | > 10 |
| COc1cc(F)ccc1C(=O)/C=C/C(=O)N1CCN(c2ccc(Nc3ncc4cc(C(=O)N(C)C)n(C5CCCC5)c4n3)nc2)CC1 [Compound 265, (E)-7-cyclopentyl-2-((5-(4-(4-(4-fluoro-2-methoxyphenyl)-4-oxobut-2-enoyl)piperazin-1-yl)pyridin-2-yl)amino)-N,N-dimethyl-7H-pyrrolo[2,3-d]pyrimidine-6-carboxamide] | > 10 |
| COc1ccc(C(=O)/C=C/C(=O)N2CCN(c3ccc(Nc4ncc5cc(C(=O)N(C)C)n(C6CCCC6)c5n4)nc3)CC2)cc1F [Compound 266, (E)-7-cyclopentyl-2-((5-(4-(4-(3-fluoro-4-methoxyphenyl)-4-oxobut-2-enoyl)piperazin-1-yl)pyridin-2-yl)amino)-N,N-dimethyl-7H-pyrrolo[2,3-d]pyrimidine-6-carboxamide] | > 10 |
| CN(C)C(=O)c1cc2cnc(Nc3ccc(N4CCN(C(=O)/C=C/C(=O)c5ccc(C#N)cc5)CC4)cn3)nc2n1C1CCCC1 [Compound 267, (E)-2-((5-(4-(4-(4-cyanophenyl)-4-oxobut-2-enoyl)piperazin-1-yl)pyridin-2-yl)amino)-7-cyclopentyl-N,N-dimethyl-7H-pyrrolo[2,3-d]pyrimidine-6-carboxamide] | > 10 |
| COc1ccc(C(=O)/C=C/C(=O)N2CCN(c3ccc(Nc4ncc5cc(C(=O)N(C)C)n(C6CCCC6)c5n4)nc3)CC2)c(Cl)c1 [Compound 268, (E)-2-((5-(4-(4-(2-chloro-4-methoxyphenyl)-4-oxobut-2-enoyl)piperazin-1-yl)pyridin-2-yl)amino)-7-cyclopentyl-N,N-dimethyl-7H-pyrrolo[2,3-d]pyrimidine-6-carboxamide] | > 10 |
| COc1ccc(C(=O)/C=C/C(=O)N[C@H]2C[C@@H](Nc3ccc(Nc4ncc5cc(C(=O)N(C)C)n(C6CCCC6)c5n4)nc3)C2)cc1 [Compound 269, 7-cyclopentyl-2-((5-(((1s,3s)-3-((E)-4-(4-methoxyphenyl)-4-oxobut-2-enamido)cyclobutyl)amino)pyridin-2-yl)amino)-N,N-dimethyl-7H-pyrrolo[2,3-d]pyrimidine-6-carboxamide] | > 10 |
| COc1ccc(C(=O)/C=C/C(=O)N[C@H]2C[C@H](Nc3ccc(Nc4ncc5cc(C(=O)N(C)C)n(C6CCCC6)c5n4)nc3)C2)cc1 [Compound 270, 7-cyclopentyl-2-((5-(((1r,3r)-3-((E)-4-(4-methoxyphenyl)-4-oxobut-2-enamido)cyclobutyl)amino)pyridin-2-yl)amino)-N,N-dimethyl-7H-pyrrolo[2,3-d]pyrimidine-6-carboxamide] | > 10 |
| COc1ccc(C(=O)/C=C/C(=O)N2CCN(c3ccc(Nc4ncc5cc(C(=O)N(C)C)n(C6CCCC6)c5n4)nc3)[C@H](C)C2)cc1 [Compound 271, (R,E)-7-cyclopentyl-2-((5-(4-(4-(4-methoxyphenyl)-4-oxobut-2-enoyl)-2-methylpiperazin-1-yl)pyridin-2-yl)amino)-N,N-dimethyl-7H-pyrrolo[2,3-d]pyrimidine-6-carboxamide] | 1 to 10 |
| COc1ccc(C(=O)/C=C/C(=O)N(C)CCN(C)c2ccc(Nc3ncc4cc(C(=O)N(C)C)n(C5CCCC5)c4n3)nc2)cc1 [Compound 272, (E)-7-cyclopentyl-2-((5-((2-(4-(4-methoxyphenyl)-N-methyl-4-oxobut-2-enamido)ethyl)(methyl)amino)pyridin-2-yl)amino)-N,N-dimethyl-7H-pyrrolo[2,3-d]pyrimidine-6-carboxamide] | > 10 |
| COc1ccc(C(=O)/C=C/C(=O)N2CCN(c3ccc(Nc4ncc5cc(C(=O)N(C)C)n(C6CCCC6)c5n4)nc3)C[C@H]2C)cc1 [Compound 273, (R,E)-7-cyclopentyl-2-((5-(4-(4-(4-methoxyphenyl)-4-oxobut-2-enoyl)-3-methylpiperazin-1-yl)pyridin-2-yl)amino)-N,N-dimethyl-7H-pyrrolo[2,3-d]pyrimidine-6-carboxamide] | 1 to 10 |
| COc1ccc(C(=O)/C=C/C(=O)N2CCN(c3ccc(Nc4ncc5cc(C(=O)N(C)C)n(C6CCCC6)c5n4)nc3)[C@@H](C)C2)cc1 [Compound 274, (S,E)-7-cyclopenty1-2-((5-(4-(4-(4-methoxyphenyl)-4-oxobut-2-enoyl)-2-methylpiperazin-1-yl)pyridin-2-yl)amino)-N,N-dimethyl-7H-pyrrolo[2,3-d]pyrimidine-6-carboxamide] | 1 to 10 |
| COc1ccc(C(=O)/C=C/C(=O)N2CCCN(c3ccc(Nc4ncc5cc(C(=O)N(C)C)n(C6CCCC6)c5n4)nc3)CC2)cc1 [Compound 275, (E)-7-cyclopentyl-2-((5-(4-(4-(4-methoxyphenyl)-4-oxobut-2-enoyl)-1,4-diazepan-1-yl)pyridin-2-yl)amino)-N,N-dimethy1-7H-pyrrolo[2,3-d]pyrimidine-6-carboxamide] | 1 to 10 |
| COc1ccc(C(=O)/C=C/C(=O)N2CCN(c3ccc(Nc4ncc5cc(C(=O)N(C)C)n(C6CCCC6)c5n4)nc3)C[C@@H]2C)cc1 [Compound 276, (S,E)-7-cyclopentyl-2-((5-(4-(4-(4-methoxyphenyl)-4-oxobut-2-enoyl)-3-methylpiperazin-1-yl)pyridin-2-yl)amino)-N,N-dimethyl-7H-pyrrolo[2,3-d]pyrimidine-6-carboxamide] | 1 to 10 |
| CN(C)C(=O)c1cc2cnc(Nc3ccc(N4CCN(C(=O)/C=C/C(=O)c5ccc(Br)cc5)CC4)cn3)nc2n1C1CCCC1 [Compound 284, (E)-2-((5-(4-(4-(4-bromophenyl)-4-oxobut-2-enoyl)piperazin-1-yl)pyridin-2-yl)amino)-7-cyclopentyl-N,N-dimethyl-7H-pyrrolo[2,3-d]pyrimidine-6-carboxamide] | > 10 |

— patent publication US20260200939A1, “MOLECULAR GLUE DEGRADER COMPOUNDS AND USES THEREOF” (Novartis AG, priority 2022, published 2026)
